System: anti-C-myc peptide monoclonal antibody 9E10
Assay: bead staining test for binding to anti-C-myc monoclonal antibody 9E10
Details: bead-bound peptides of the 117,649 peptide library; 1:200 dilution of 9E10 ascites fluid; alkaline phosphatase-coupled goat antimouse IgG colour detection; sequence read from tags
Procedure: The anti-C-myc peptide monoclonal antibody 9E10 was prepared from ascites fluid as described in Evans et al., Mol. Cell Biol., 5, 3610-3616 (1985) and Munro and Pelham, Cell, 48, 899-907 (1987). To test beads for binding to 9E10, beads were incubated in TBST [20 mM Tris-HCl (pH 7.5), 500 mM NaCl and 0.05% Tween-20] containing 1% bovine serum albumin (BSA) to block non-specific protein binding sites. The beads were then centrifuged, resuspended in a 1:200 dilution of 9E10 ascites fluid in TBST+1% BSA and incubated overnight at 4° C. Beads were subsequently washed three times in TBST and incubated for 90 min. at room temperature in alkaline phosphatase-coupled goat antimouse IgG antibodies (Bio-Rad Laboratories), diluted 1:3000 in TBST+1% BSA. After washing the beads twice in TBST and once in phosphatase buffer (100 mM Tris-HCl, pH 9.5, 100 mM NaCl and 5 mM MgCl2), the beads were incubated 1 hr at room temperature in phosphatase buffer containing one one-hundredth part each of AP Color Reagents A & B (Bio-Rad Laboratories). To stop the reaction, the beads were washed twice in 20 mM sodium EDTA, pH 7.4. Solution phase affinities between 9E10 and various peptides were determined by a modification of the competitive ELISA assay described by Harlow et al., Antibodies: a Laboratory Manual, 570-573, Cold Spring Harbor Press, Cold Spring Harbor, N.Y.

- beads stained on exposure to the anti-C-myc monoclonal antibody: stained
Sequence: EQKLISEEDL

Reference: patent US6503759B1, “Complex combinatorial chemical libraries encoded with tags” (The Trustees of Columbia University in the City of New York, priority 1992, dated 2003)
